One test deals with VEGFR-2 (Homo sapiens, UniProt P35968). In words: VEGFR-2 kinase assay. The test is classed as biochemical. The settings on record: poly glu/tyr substrate, 33P-ATP; read-out: VEGFR2 IC50. How it is done: 1. VEGFR-2 and FGFR-1 Kinase Assays:
Incubation mixtures employed for VEGFR-2 or FGFR-1 assay contain the synthetic substrate poly glu/tyr, (4:1), ATP, ATP-γ-^33P and buffer containing Mn^++ and/or Mg^++, DTT, BSA, and Tris buffer. The reaction is initiated by addition of enzyme and after 60 minutes at room temperature is terminated by the addition of 30% TCA to a final concentration of 15% TCA. Inhibitors are brought to 10 mM in 100% DMSO. Assays are prepared in a 96 well format in quadruplicate. Compounds are diluted 1:500 in 100% DMSO and then 1:10 in water for a final DMSO concentration of 10%. 10 μL are added to rows B-H in a 96 well format of 10% DMSO. 20 μl of compound is added to row A at a concentration 5 fold higher than running conditions. Ten μL are transferred to each row followed by six serial dilutions with mixing, and at row F 10 μL are discarded. Row G is a control with no compound and row H is no compound and no enzyme control. Enzyme and substrate are delivered using a Tomtec Quadra station.
Plates are covered with sticky plate tops, incubated at 27° C. for 60 minutes, and then acid precipitated with TCA for 20 minutes on ice. The precipitate is transferred to UniFilter-96, GF/C microplates using either a Tomtec or Packard FilterMate harvester. Activity is determined by quantitating the incorporated radioactivity using a Packard TopCount Microplate Scintillation Counter following the addition of Microscint-20 cocktail into each dried well of the UniFilter microplates.

The target in test [1] is T1, IGF-1 receptor tyrosine kinase (Homo sapiens, UniProt P08069).
T1 construct: host or cells: baculovirus expression system
T1 sequence (P08069 31-1367): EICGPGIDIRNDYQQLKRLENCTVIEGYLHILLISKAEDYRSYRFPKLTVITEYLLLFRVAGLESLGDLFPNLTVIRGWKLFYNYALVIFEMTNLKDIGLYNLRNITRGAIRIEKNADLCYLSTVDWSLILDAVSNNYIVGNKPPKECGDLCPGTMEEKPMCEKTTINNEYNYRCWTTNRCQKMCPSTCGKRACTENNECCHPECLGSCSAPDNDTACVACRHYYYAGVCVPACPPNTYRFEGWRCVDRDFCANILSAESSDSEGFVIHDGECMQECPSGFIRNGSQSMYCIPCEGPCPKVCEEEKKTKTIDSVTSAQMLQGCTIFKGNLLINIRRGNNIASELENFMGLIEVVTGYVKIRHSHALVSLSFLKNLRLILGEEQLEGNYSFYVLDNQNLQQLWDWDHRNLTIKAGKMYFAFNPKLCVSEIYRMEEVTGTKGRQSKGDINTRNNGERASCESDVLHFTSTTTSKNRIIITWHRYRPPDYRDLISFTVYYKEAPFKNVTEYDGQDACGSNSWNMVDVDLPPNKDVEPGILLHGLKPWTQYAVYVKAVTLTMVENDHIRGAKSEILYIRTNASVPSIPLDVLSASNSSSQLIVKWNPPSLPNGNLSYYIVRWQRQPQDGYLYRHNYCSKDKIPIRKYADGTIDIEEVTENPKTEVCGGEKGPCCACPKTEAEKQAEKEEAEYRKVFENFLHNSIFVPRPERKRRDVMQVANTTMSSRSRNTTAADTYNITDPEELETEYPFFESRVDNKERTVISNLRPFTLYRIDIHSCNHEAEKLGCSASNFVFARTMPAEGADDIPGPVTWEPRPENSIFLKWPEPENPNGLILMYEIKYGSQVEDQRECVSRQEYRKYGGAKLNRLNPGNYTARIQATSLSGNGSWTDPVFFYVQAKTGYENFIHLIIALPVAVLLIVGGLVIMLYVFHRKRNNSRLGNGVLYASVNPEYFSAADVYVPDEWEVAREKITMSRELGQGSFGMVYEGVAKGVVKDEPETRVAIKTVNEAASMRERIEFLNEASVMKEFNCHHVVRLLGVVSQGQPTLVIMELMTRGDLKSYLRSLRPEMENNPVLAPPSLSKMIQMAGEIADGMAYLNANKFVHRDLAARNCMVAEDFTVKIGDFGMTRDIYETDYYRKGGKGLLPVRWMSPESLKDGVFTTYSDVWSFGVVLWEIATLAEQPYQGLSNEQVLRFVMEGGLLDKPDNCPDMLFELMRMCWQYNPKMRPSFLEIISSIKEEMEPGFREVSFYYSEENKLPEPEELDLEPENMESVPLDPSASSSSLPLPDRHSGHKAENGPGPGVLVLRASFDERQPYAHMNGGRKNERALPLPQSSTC
In words: IGF-receptor tyrosine kinase assay. The test is classed as biochemical. The settings on record: poly(Glu/Tyr) substrate, 25 μM ATP, baculovirus expressed enzyme; read-out: IGF1R IC50. How it is done:
3. IGF-Receptor Tyrosine Kinase Assay
The IGF-1 receptor tyrosine kinase was assayed using the synthetic polymer poly(Glu/Tyr) (Sigma Chemicals) as a phosphoacceptor substrate. Each reaction mixture consisted of a total volume of 50 ul and contained 125 ng of baculovirus expressed enzyme, 2.5 μg of poly(Glu/Tyr), 25 μM of ATP, and 0.1 μCi of [γ-^33P]ATP. The mixtures also contained 20 mM MOPS, pH 7.0, 5 mM MnCl2, 0.5 mM […], and 0.1 mg/ml bovine serum albumin. The reaction mixtures were incubated at 30° C. for 45 minutes and kinase activity was determined by quantitation of the amount of radioactive phosphate transferred to the poly(Glu/Tyr) substrate. Incorporation was measured by the addition of cold trichloroacetic acid (TCA) precipitation of the proteins which were collected onto GF/C unifilter plates (Packard Instrument Co., Meriden, Conn.) using a Filtermate universal harvester and the filters were quantitated using a TopCount 96-well liquid scintillation counter (Packard Instrument Co., Meriden, Conn.). Compounds were dissolved in dimethyl sulfoxide to a concentration of 10 mM and were evaluated at six concentrations, each in triplicate.

The text below walks through data of patent publication US8148361B2, “Kinase inhibitors” (Bristol-Myers Squibb Company, priority 2006, dated 2012).

VEGFR-2, sequence (P35968 20-1356): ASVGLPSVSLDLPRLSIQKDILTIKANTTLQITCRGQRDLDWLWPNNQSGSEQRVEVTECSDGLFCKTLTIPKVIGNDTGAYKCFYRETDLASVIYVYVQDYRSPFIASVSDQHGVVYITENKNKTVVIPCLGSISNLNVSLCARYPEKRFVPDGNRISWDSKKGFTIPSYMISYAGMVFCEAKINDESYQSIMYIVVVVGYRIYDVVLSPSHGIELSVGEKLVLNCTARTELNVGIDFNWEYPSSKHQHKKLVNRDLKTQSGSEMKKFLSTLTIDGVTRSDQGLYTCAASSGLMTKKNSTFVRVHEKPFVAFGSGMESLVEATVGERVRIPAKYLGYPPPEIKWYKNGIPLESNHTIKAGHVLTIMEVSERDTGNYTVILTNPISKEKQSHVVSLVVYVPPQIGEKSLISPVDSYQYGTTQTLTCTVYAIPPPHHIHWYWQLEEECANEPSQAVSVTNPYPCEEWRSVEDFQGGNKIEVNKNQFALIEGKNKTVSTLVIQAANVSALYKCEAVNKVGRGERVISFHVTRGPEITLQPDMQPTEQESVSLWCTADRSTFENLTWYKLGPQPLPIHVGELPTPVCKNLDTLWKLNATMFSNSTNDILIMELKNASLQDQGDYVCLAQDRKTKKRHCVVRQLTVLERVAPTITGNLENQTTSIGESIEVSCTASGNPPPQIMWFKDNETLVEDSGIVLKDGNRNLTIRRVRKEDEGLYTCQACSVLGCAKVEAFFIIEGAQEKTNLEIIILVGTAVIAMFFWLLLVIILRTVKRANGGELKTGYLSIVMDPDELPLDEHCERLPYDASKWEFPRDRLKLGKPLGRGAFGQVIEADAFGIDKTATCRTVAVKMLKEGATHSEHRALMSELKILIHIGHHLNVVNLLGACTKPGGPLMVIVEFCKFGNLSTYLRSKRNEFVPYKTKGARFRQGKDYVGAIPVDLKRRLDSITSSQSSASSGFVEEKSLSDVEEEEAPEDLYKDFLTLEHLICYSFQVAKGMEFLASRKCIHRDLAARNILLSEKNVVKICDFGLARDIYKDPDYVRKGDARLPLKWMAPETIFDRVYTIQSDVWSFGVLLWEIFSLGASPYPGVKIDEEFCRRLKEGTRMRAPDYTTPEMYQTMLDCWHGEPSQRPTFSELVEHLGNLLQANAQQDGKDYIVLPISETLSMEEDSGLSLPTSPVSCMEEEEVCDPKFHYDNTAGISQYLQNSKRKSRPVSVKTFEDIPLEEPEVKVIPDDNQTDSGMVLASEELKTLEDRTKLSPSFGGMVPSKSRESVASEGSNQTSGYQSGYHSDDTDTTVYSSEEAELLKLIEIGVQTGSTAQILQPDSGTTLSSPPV

As for `O=C(NC1CC1)c1ccc(F)c(NCc2cnc3[nH]c(-c4ccccc4)cc3c2)c1` [Example 1, N-Cyclopropyl-4-fluoro-3-{(2-phenyl-1H-pyrrolo[2,3-b]pyridin-5-yl)methylamino}benzamide], the IC50 at VEGFR-2 was determined as 16 nM.

For the compound `O=C(NC1CC1)c1cc(NCc2cnc3[nH]c(-c4ccccc4)cc3c2)c(F)cc1F` [Example 2, N-cyclopropyl-2,4-difluoro-5-((2-phenyl-1H-pyrrolo[2,3-b]pyridin-5-yl)methylamino)benzamide], at VEGFR-2, the IC50 was found to be 64 nM.

Regarding `O=C(NC1CC1)c1ccc(F)c(CNc2cnc3[nH]c(-c4ccccc4)cc3c2)c1` [Example 3, N-cyclopropyl-4-fluoro-3-((2-phenyl-1H-pyrrolo[2,3-b]pyridin-5-ylamino)methyl)benzamide], the IC50 at VEGFR-2 amounted to 103 nM.

Turning to `O=C(NC1CC1)c1ccc(F)c(NCc2cnc3[nH]c(C4CC4)cc3c2)c1` [Example 4, N-cyclopropyl-3-((2-cyclopropyl-1H-pyrrolo[2,3-b]pyridin-5-yl)methylamino)-4-fluorobenzamide], on VEGFR-2, the IC50 came out at 146 nM.

In the case of `O=C(NC1CC1)c1ccc(F)c(NCc2cnc3[nH]c(-c4cccnc4)cc3c2)c1` [Example 5, N-cyclopropyl-4-fluoro-3-((2-(pyridin-3-yl)-1H-pyrrolo[2,3-b]pyridin-5-yl)methylamino)benzamide], the IC50 on VEGFR-2 worked out at 17 nM.

Turning to `O=C(NC1CN(S(=O)(=O)c2ccc(F)cc2)C1)c1cccc(Sc2cnc3[nH]c(-c4ccccc4)cc3c2)c1` [Example 13, N-(1-(4-fluorophenylsulfonyl)azetidin-3-yl)-3-(2-phenyl-1H-pyrrolo[2,3-b]pyridin-5-ylthio)benzamide], the IC50 in test [1] is 199 nM.
